ChEMBL document CHEMBL1201862, “PubChem BioAssay data set” (2004)
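1) Cells in 96-well plates. 2) Compound, 48 h, 5 concentrations. 3) Linear interpolation between surrounding doses. 4) Unreached endpoint = highest concentration. GI50 marks 50% less growth.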 Calls of active or inactive are those of the source. Rule as the data show it: active = GI50 up to about 1.1 µM and inactive = higher.

Key:
Assay in all cases: NCI anticancer screen, dose series, 48 h
CAKI-1 = tested on: CAKI-1
SW-620 = tested on: SW-620
HCT-15 = tested on: HCT-15
OVCAR-3 = tested on: OVCAR-3
M14 = tested on: M14
A498 = tested on: A498
COLO 205 = tested on: COLO 205
DU-145 = tested on: DU-145
OVCAR-5 = tested on: OVCAR-5
Malme-3M = tested on: Malme-3M
TK-10 = tested on: TK-10
SF-539 = tested on: SF-539
SN12C = tested on: SN12C
KM12 = tested on: KM12
HL-60 = tested on: HL-60
HT-29 = tested on: HT-29
786-0 = tested on: 786-0
RXF 393 = tested on: RXF 393
SK-MEL-2 = tested on: SK-MEL-2
UACC-257 = tested on: UACC-257

| Compound | GI50 (CAKI-1) | GI50 (SW-620) | GI50 (HCT-15) [µM] | GI50 (OVCAR-3) | GI50 (M14) | GI50 (A498) | GI50 (COLO 205) | GI50 (DU-145) | GI50 (OVCAR-5) | GI50 (Malme-3M) | GI50 (TK-10) | GI50 (SF-539) | GI50 (SN12C) | GI50 (KM12) | GI50 (HL-60) | GI50 (HT-29) | GI50 (786-0) | GI50 (RXF 393) | GI50 (SK-MEL-2) | GI50 (UACC-257) |
| --- | --- | --- | --- | --- | --- | --- | --- | --- | --- | --- | --- | --- | --- | --- | --- | --- | --- | --- | --- | --- |
| O=c1[nH]c(=O)n(C2OC(CO)C(O)C2O)c2ccsc12 (stereo not drawn) | > 100 µM (inactive) | > 100 µM (inactive) | > 100 | > 100 µM (inactive) | > 100 µM (inactive) | > 100 µM (inactive) | > 100 µM (inactive) | > 100 µM (inactive) | > 100 µM (inactive) | > 100 µM (inactive) | > 100 µM (inactive) | > 100 µM (inactive) | > 100 µM (inactive) | > 100 µM (inactive) | > 100 µM (inactive) | > 100 µM (inactive) | > 100 µM (inactive) | > 100 µM (inactive) | > 100 µM (inactive) | > 100 µM (inactive) |
| C[N+](C)(C)CC1CCCCCCCCCCC1=O (stereo not drawn) | > 100 µM (inactive) | > 100 µM (inactive) | > 100 | > 100 µM (inactive) | > 100 µM (inactive) | > 100 µM (inactive) | > 100 µM (inactive) | > 100 µM (inactive) | > 100 µM (inactive) | > 100 µM (inactive) | > 100 µM (inactive) | > 100 µM (inactive) | > 100 µM (inactive) | > 100 µM (inactive) | > 100 µM (inactive) | > 100 µM (inactive) | > 100 µM (inactive) | > 100 µM (inactive) | > 100 µM (inactive) | > 100 µM (inactive) |
| Cc1ccc(-n2cc(-c3ccc(Cl)cc3)c(C#N)c2N)cc1 | 21.2 µM (inactive) | 13.2 µM (inactive) | 12.1 | 15.6 µM (inactive) | 15.3 µM (inactive) | 18.4 µM (inactive) | 14.1 µM (inactive) | 25.2 µM (inactive) | 15.1 µM (inactive) | 18 µM (inactive) | 14.7 µM (inactive) | 16.6 µM (inactive) | 14.8 µM (inactive) |  | 4.1 µM (inactive) | 14 µM (inactive) | 15.3 µM (inactive) | 10.5 µM (inactive) | 15.2 µM (inactive) | 14.8 µM (inactive) |
| C#C[C@]1(O)CC[C@H]2[C@@H]3CCC4=C/C(=N/CCOC(=O)c5cccc6c(=O)c7ccccc7[nH]c56)CC[C@@H]4[C@H]3CC[C@@]21C | 51.3 µM (inactive) | 45.2 µM (inactive) | 45 | 33.5 µM (inactive) | 41.7 µM (inactive) | 58.6 µM (inactive) | 37.1 µM (inactive) | 32.4 µM (inactive) | > 100 µM (inactive) | 34.6 µM (inactive) | 45.8 µM (inactive) |  | 74.5 µM (inactive) | 30.6 µM (inactive) | 23.1 µM (inactive) | 64.3 µM (inactive) | 42.4 µM (inactive) | 5.62 µM (inactive) | 30.1 µM (inactive) | 43.2 µM (inactive) |
| O=C1/C(=C/c2ccc(O)cc2)CCCC1CN1CCCCC1 (stereo not drawn) | 2.56 µM (inactive) | 1.88 µM (inactive) | 1.32 | 4.41 µM (inactive) | 2.94 µM (inactive) | 6.84 µM (inactive) | 2.16 µM (inactive) | 7.24 µM (inactive) | 16.3 µM (inactive) | 1.88 µM (inactive) | 2.55 µM (inactive) | 3.94 µM (inactive) | 2.29 µM (inactive) | 1.64 µM (inactive) | 0.483 µM (active) | 2.62 µM (inactive) | 1.02 µM (active) | 13.7 µM (inactive) | 11.2 µM (inactive) | 2.52 µM (inactive) |
| COc1cc(NCCC2CCCCN2)c2ncccc2c1 (stereo not drawn) | > 77.1 µM (inactive) | > 70.6 µM (inactive) | > 74.3 | 4.63 µM (inactive) | 21.5 µM (inactive) | 53.2 µM (inactive) | 13.5 µM (inactive) | > 76.9 µM (inactive) | > 100 µM (inactive) | 26.9 µM (inactive) | > 73.6 µM (inactive) | > 100 µM (inactive) | > 49.4 µM (inactive) | 60.4 µM (inactive) | 3.56 µM (inactive) | 41.7 µM (inactive) | > 82 µM (inactive) | 22.2 µM (inactive) | > 55.7 µM (inactive) | 19.4 µM (inactive) |
| Cc1ccc(C(=O)/C=C/N2CCN(c3cccc(C(F)(F)F)c3)CC2)cc1 | 17.8 µM (inactive) | 20.6 µM (inactive) | 15.6 | 14.4 µM (inactive) | 16.9 µM (inactive) | 15.8 µM (inactive) | 24.3 µM (inactive) | 16 µM (inactive) | 21.4 µM (inactive) | 18.6 µM (inactive) | 25.3 µM (inactive) | 15.9 µM (inactive) | 18.5 µM (inactive) | 18.7 µM (inactive) | 22.8 µM (inactive) | 17.9 µM (inactive) | 18.2 µM (inactive) | 15.7 µM (inactive) | 18.6 µM (inactive) | 16.4 µM (inactive) |
